Several values for one entry are separate records, joined by “and”; a condition that tells them apart may be missing. Identical values can stand only once. Numbered stars: 1 amine (or outer) side, 2 acyl side, 3 side chain; on linkers, the order of the positions; unused ones are H or OH. Bridge positions count the residues as written; N and C are the ends. Peptide text beside a SMILES is read from it. I, II: the chains in the order shown. Rhodamine110 = O=C1OC2(c3ccc(N[*:1])cc3Oc3cc(N[*:2])ccc32)c2ccccc21
Legend:
Format in all cases: cell-based, human
[1] = test system: LYMPHOCYTES; assay: Disease to normal ratio of enzyme activity, lymphocytes (Table 5)
Excerpt: (§1) A normal in house adult donor pool was drawn, recording sex and determining that no known disease state was present at the time of sample draw. Criteria for rejecting samples included patients under medication, patients with infection or inflammation of any type, colds and flu as well as any known medical illness such as cancer, heart ailment and high blood pressure. A donor list of 75 patients has been developed and a mean and 2 sd range established. A subgroup of "super normals" was developed from this list by examining the 75 patients to determine which group falls closest to the mean for all enzymes in all cell types tested. These patients were used as the "wellness index" or best group of "normalcy" patients. If a study required the use of children or newborns then this same format was used to develop a data base for these age groups.

[2] = test system: MONOCYTES; assay: Disease to normal ratio of enzyme activity, monocytes (Table 5)
Excerpt: as §1

[3] = test system: cells of normals and HIV + patients; assay: Substrate panel in cells of normals and HIV+ patients, possible TB infection (Table 4)
Method: A panel of assay compounds are assembled consisting of Ala-aminopeptidase and Lys-aminopeptidase, Dipeptidyl peptidase IV (Ala-Ala)2 rhodamine 110 and Cathepsin D to indicate possible TB infection in AIDS related cases.
A panel of enzymatic substrates is performed consisting of Ala-aminopeptidase and Lys-aminopeptidase, Dipeptidyl peptidase IV (Ala-Ala)2 rhodamine 110 and Cathepsin D to indicate possible TB infection in AIDS related cases.

[4] = Inflam. Bowel Dis., monocytes section

SMILES | Ratio of disease to normal ([1]; Dermatomyositis) | Ratio of disease to normal ([1]; Inflam. Bowel Dis.) | Ratio of disease to normal ([1]; JRA) | Ratio of disease to normal ([1]; Kawasaki's) | Ratio of disease to normal ([1]; Lupus) | Ratio of disease to normal ([1]; Rheumatic Fever) | Ratio of disease to normal ([2]; Dermatomyositis, monocytes) | Ratio of disease to normal ([2]; JRA, monocytes) | Ratio of disease to normal ([2]; Kawasaki's, monocytes) | Ratio of disease to normal ([2]; Lupus, monocytes) | Ratio of disease to normal ([2]; Rheumatic Fever, monocytes) | Ratio of disease to normal [2, 4] | MEAN DELTA FL ([3]; HIV + PATIENTS) | MEAN DELTA FL ([3]; NORMALS) | MEAN DELTA FL ([3]; HIV + PATIENTS, listed as ALA--GLY*) | MEAN DELTA FL ([3]; NORMALS, listed as ALA--GLY*) | MEAN DELTA FL ([3]; HIV + PATIENTS, listed as LYS--ALA^1) | MEAN DELTA FL ([3]; NORMALS, listed as LYS--ALA^1)
C[C@H](NC(=O)[C@@H](N)CCCCN)C(=O)Nc1ccc2c(c1)Oc1cc(NC(=O)[C@H](C)NC(=O)[C@@H](N)CCCCN)ccc1C21OC(=O)c2ccccc21 [KA-M, (Lys-Ala)2 Rho 110] | 1.93 | 1.63 | 1.46 | 1.32 | 1.06 | 2.07 | 1.55 | 12.14 | 7.08 | 14.08 | 15.36 |  |  |  |  |  |  | 
O=C(NCC(=O)N1CCC[C@H]1C(=O)Nc1ccc2c(c1)Oc1cc(NC(=O)[C@@H]3CCCN3C(=O)CNC(=O)OCc3ccccc3)ccc1C21OC(=O)c2ccccc21)OCc1ccccc1 [Z-GP-M, (carbobenzyloxycarbonyl-Gly-Pro)2 Rho 110 (modified)] | 3.45 |  |  | 3.44 | 2.09 | 4.09 | 3.05 | 1.79 | 4.47 | 1.92 | 2.99 | 3.33 |  |  |  |  |  | 
CC(=O)Oc1ccc2c(c1)Oc1cc(OC(C)=O)ccc1C21OC(=O)c2ccccc21 [FDA-NAF, reference compound] | 1.14 | 0.89 | 0.21 | 0.30 | 0.74 | 0.97 | 1.03 | 0.35 | 0.58 | 0.83 | 0.89 | 1.11 |  |  |  |  |  | 
C[C@H](N)C(=O)Nc1ccc2c(c1)Oc1cc(NC(=O)[C@H](C)N)ccc1C21OC(=O)c2ccccc21 [ALA, (Ala)2 Rho 110] | 1.16 | 1.53 | 1.59 | 1.05 | 1.16 | 1.18 |  | 1.31 | 1.36 | 6.17 | 1.08 | 1.43 |  |  |  |  |  | 
CC(=O)Oc1ccc2c(c1)Oc1cc(OC(C)=O)ccc1C21OC(=O)c2ccccc21 [FDA, fluorescein diacetate, reference compound] | 1.06 |  | 1.17 |  | 1.01 |  |  | 1.55 |  | 1.01 |  |  |  |  |  |  |  | 
NC(=O)CC[C@H](N)C(=O)N[C@@H](CO)C(=O)Nc1ccc2c(c1)Oc1cc(NC(=O)[C@H](CO)NC(=O)[C@@H](N)CCC(N)=O)ccc1C21OC(=O)c2ccccc21 (relative stereo) [GLN--SER*] |  |  |  |  |  |  |  |  |  |  |  |  | 13.7 and 12.7 | 11.9 and 6.1 |  |  |  | 
C[C@H](NC(=O)CNC(=O)[C@H](Cc1ccccc1)NC(=O)CN)C(=O)Nc1ccc2c(c1)Oc1cc(NC(=O)[C@H](C)NC(=O)CNC(=O)[C@H](Cc3ccccc3)NC(=O)CN)ccc1C21OC(=O)c2ccccc21 [GFGA, (Gly-Phe-Gly-Ala)2 Rho 110] (I: H-GFGA / II: H-GFGA; linker I:C-II:C via Rhodamine110) | 2.14 | 2.16 | 2.03 | 2.15 | 1.25 | 2.14 | 2.01 | 2.29 | 1.77 | 2.18 | 1.36 | 3.42 |  |  |  |  |  | 
NCC(=O)Nc1ccc2c(c1)Oc1cc(NC(=O)CN)ccc1C21OC(=O)c2ccccc21 [GLY, (Gly)2 Rho 110] |  | 1.97 |  | 1.94 | 1.64 | 2.09 | 1.01 | 1.11 | 3.83 |  | 2.06 | 1.84 |  |  |  |  |  | 
C[C@H](N)C(=O)NCC(=O)Nc1ccc2c(c1)Oc1cc(NC(=O)CNC(=O)[C@H](C)N)ccc1C21OC(=O)c2ccccc21 [ALA--GLY****] |  |  |  |  |  |  |  |  |  |  |  |  | 39.9 | 48.0 | 29.7 | 31.6 |  | 
N=C(N)NCCC[C@H](N)C(=O)NCC(=O)N[C@@H](CCC(=O)O)C(=O)N[C@@H](CO)C(=O)Nc1ccc2c(c1)Oc1cc(NC(=O)[C@H](CO)NC(=O)[C@H](CCC(=O)O)NC(=O)CNC(=O)[C@@H](N)CCCNC(=N)N)ccc1C21OC(=O)c2ccccc21 (stereo partly drawn) [RGES, (Arg-Gly-Glu-Ser)2 Rho 110] (I: H-RGES / II: H-RGES; linker I:C-II:C via Rhodamine110) | 2.06 | 1.96 | 1.43 | 1.43 | 1.84 | 2.04 | 5.22 | 3.98 | 4.65 | 3.03 | 6.52 | 6.02 |  |  |  |  |  | 
O=C1OC2(c3ccc(OP(=O)(O)O)cc3Oc3cc(OP(=O)(O)O)ccc32)c2ccccc21 [DPO4, (PO4)2 fluorescein] |  |  |  |  |  |  |  | 1.13 |  |  | 1.09 |  |  |  |  |  |  | 
CC(C)[C@H](N)C(=O)N[C@@H](CCCCN)C(=O)Nc1ccc2c(c1)Oc1cc(NC(=O)[C@H](CCCCN)NC(=O)[C@@H](N)C(C)C)ccc1C21OC(=O)c2ccccc21 [VK-M, (Val-Lys)2 Rho 110 (modified)] |  |  | 7.71 |  |  |  | 3.45 | 3.49 |  | 11.37 | 8.67 | 1.41 |  |  |  |  |  | 
C[C@H](NC(=O)[C@@H](N)CCCCN)C(=O)Nc1ccc2c(c1)Oc1cc(NC(=O)[C@H](C)NC(=O)[C@@H](N)CCCCN)ccc1C21OC(=O)c2ccccc21 [KA, (Lys-Ala)2 Rho 110] | 1.39 | 1.75 |  | 1.53 | 1.93 | 1.19 | 1.04 |  | 2.22 | 6.93 | 2.39 | 1.95 |  |  |  |  |  | 
O=C(NCC(=O)N1CCC[C@H]1C(=O)Nc1ccc2c(c1)Oc1cc(NC(=O)[C@@H]3CCCN3C(=O)CNC(=O)OCc3ccccc3)ccc1C21OC(=O)c2ccccc21)OCc1ccccc1 [Z-GP, (carbobenzyloxycarbonyl-Gly-Pro)2 Rho 110] | 1.73 | 1.73 | 1.29 |  | 1.93 | 3.23 |  | 1.34 | 4.06 | 1.88 | 3.56 | 1.64 |  |  |  |  |  | 
C[C@@H](O)[C@H](NC(=O)OCc1ccccc1)C(=O)N1CCC[C@H]1C(=O)Nc1ccc2c(c1)Oc1cc(NC(=O)[C@@H]3CCCN3C(=O)[C@@H](NC(=O)OCc3ccccc3)[C@@H](C)O)ccc1C21OC(=O)c2ccccc21 [Z-TP6.5, (carbobenzyloxycarbonyl-Thr-Pro)2 Rho 110 (pH 6.5)] | 3.87 | 3.03 | 2.89 | 5.85 |  | 7.19 | 3.12 | 8.33 |  | 2.29 | 5.37 | 2.83 |  |  |  |  |  | 
CC(C)[C@H](N)C(=O)N[C@@H](CCCCN)C(=O)Nc1ccc2c(c1)Oc1cc(NC(=O)[C@H](CCCCN)NC(=O)[C@@H](N)C(C)C)ccc1C21OC(=O)c2ccccc21 [VK, (Val-Lys)2 Rho 110] | 1.39 | 1.08 |  | 1.19 | 1.25 |  | 1.42 | 5.94 | 5.38 | 1.64 | 1.32 | 3.08 |  |  |  |  |  | 
C[C@H](NC(=O)[C@@H](N)CCCCN)C(=O)Nc1ccc2c(c1)Oc1cc(NC(=O)[C@H](C)NC(=O)[C@@H](N)CCCCN)ccc1C21OC(=O)c2ccccc21 [LYS--ALA^2] |  |  |  |  |  |  |  |  |  |  |  |  | 7.9 | 7.6 |  |  | 121.5 | 112.6
